Patent publication US6897200B1, “Oligonucleotide delivery systems for camptothecins” (University of Kentucky Research Foundation, priority 1998, dated 2005)

Tests used:
[1] = tested on: single-strand DNA (ssDNA) (dT)30; assay: Lactone stability in the presence of single-strand DNA (HPLC); type: physicochemical; settings: ~33 mM base (dT)30; dsDNA 10- to 100-fold more dilute gives approximately equal stabilization
Description: Note how the presence of DNA markedly stabilizes the biologically-active form of the camptothecins drugs. […] . But it is clear from our work that camptothecin drugs can interact with ssDNA as well as RNA (see FIGS. 4 through 7) and these interactions stabilize the biologically-active lactone forms of these agents.

[2] = tested on: dsDNA oligonucleotide d(CGTACG); assay: NMR titration / 2D-NOESY of drug with d(CGTACG); settings: drug:DNA ratios of 1:1, 2:1 and 3:1
dsDNA = assay: Relactonization of carboxylate forms in dsDNA solutions (HPLC); settings: ~30 mM base dsDNA in PBS, room temperature, after 30 hrs
[3] = tested on: duplex DNA oligonucleotides (dG-dC)15 or (dA-dT)15; assay: UV absorption spectra of drug lactone with duplex DNA oligonucleotides; settings: for DNA sequence preference (UV and HPLC data): (dG-dC)15 versus (dA-dT)15; for UV spectral change in the presence of DNA: PBS pH 5, 10 μM drug, (dG-dC)15 16 mM base or (dA-dT)15 24 mM base
[4] = Lactone ring hydrolysis in PBS in the absence of DNA (reversed-phase HPLC); settings: for % Lactose at Equilibrium: PBS buffer, pH 7.4, 10 uM drug; for percent lactone at equilibrium: absence of DNA, 10 μM, incubated 3 hours, PBS pH 7.4, room temperature
[5] = tested on: dsDNA oligonucleotide (dG-dC)15; assay: Lactone ring hydrolysis in PBS in the presence of (dG-dC)15 (reversed-phase HPLC); settings: for % Lactose at Equilibrium: pH 7.4, 10 uM drug; for Lactone levels following three hours of incubation: (dG-dC)15 ~30 mM base, PBS pH 7.4, room temperature
[6] = tested on: dsDNA oligonucleotide (dA-dT)15; assay: Lactone ring hydrolysis in PBS in the presence of (dA-dT)15 (reversed-phase HPLC); settings: for % Lactose at Equilibrium: pH 7.4, 10 uM drug; for Lactone levels following three hours of incubation: (dA-dT)15 ~30 mM base, PBS pH 7.4, room temperature
[7] = tested on: double-stranded DNA (dsDNA); assay: Fluorescence emission spectra of SN-38 lactone with DNA; type: binding; settings: SN-38 lactone 1 μM, spectra within 2 min
Procedure: FIG. 8 depicts the marked shifting of the fluorescence emission spectra of SN-38 lactone (1 μM final concentration) in the presence of double-stranded DNA (dsDNA). SN38 contains a 10-hydroxy-nctionality which results in the molecule having a fluorescence emission which is highly sensitive to the presence of water in the surrounding microenvironment. […] Note how the agent fluoresces in the 410 nm to 460 nm region when water is not present, but fluoresces at 520 to 530 nm when water is present. […] The fluorophore was directly added to the DNA solution and the spectra recorded immediately (within 2 min.) prior to any significant conversion of the agent to carboxylate form.
To gain mechanistic insight into why the stabilization occurs, fluorescence spectroscopic scans of SN-38 lactone in the presence and absence of DNA were recorded.
Our results thus provide the first evidence that duplex DNA devoid of TopoI may play a functional role in the biological activities of the camptothecin drugs through the promotion of active lactone levels within the cell nucleus. […] The DNA-associated drugs are likely to be in their active lactone forms and ready for the subsequent drug-DNA-enzyme complex formation.

[8] = tested on: RNA (total RNA from yeast); assay: Stability of topotecan lactone in the presence of RNA (reversed-phase HPLC); type: physicochemical; settings: 1 μM topotecan
Procedure: FIG. 4 depicts the stability of topotecan in the presence of various concentrations of RNA at 22° C. In these experiments, topotecan (at a final concentration of 1 μM) was incubated in PBS, pH 7.4 in the presence of various concentrations of RNA (total RNA from yeast) for 30 min at 22° C. and analyzed for the fraction of lactone present by reversed-phase HPLC. […] As an example, in the presence of 7.5 mg/ml of RNA there exists a 10% greater amount of the lactone form than found in the absence of RNA.
FIG. 5. Stability of topotecan in the presence of various concentrations of RNA at 37° C. Topotecan (1 μM final concentration) was incubated in PBS, pH 7.4 in the presence of various concentrations of RNA (total RNA from yeast) for 30 min at 37° C. and analyzed for the fraction of lactone present by reversed-phase HPLC. At a RNA concentration of 7.5 mg/ml, 12% more of the lactone form of topotecan is present.
(§1) FIG. 6 represents a comparison of the stability of topotecan in the presence and absence of RNA at 22° C. Topotecan (1 μM final concentration) was incubated in PBS, pH 7.4 either alone (filled circles) or in the presence of 10 mg/ml of RNA (open circles) at 22° C. and analyzed for the fraction of lactone present at different times by reversed-phase HPLC.
as §1, with “7” for “6”, “37°” for “22°”, “in the absence” for “alone”

SMILES	effect of ssDNA on lactone stabilization (versus dsDNA) [1]	drug binding to DNA (2D-NOESY) [2]	active lactone level after relactonization of pure carboxylate form (dsDNA) [%]	DNA sequence preference (UV and HPLC data) [3]	UV spectral change in the presence of DNA [3]	% Lactose at Equilibrium ([4]; 22 °C) [%]	% Lactose at Equilibrium ([4]; 37 °C) [%]	percent lactone at equilibrium [4] [%]	% Lactose at Equilibrium ([5]; (dG-dC)15, 22 °C) [%]	% Lactose at Equilibrium ([5]; (dG-dC)15, 37 °C) [%]	Lactone levels following three hours of incubation [5]	% Lactose at Equilibrium ([6]; (dA-dT)15, 22 °C) [%]	% Lactose at Equilibrium ([6]; (dA-dT)15, 37 °C) [%]	Lactone levels following three hours of incubation [6] [%]	direct binding of lactone form to DNA (fluorescence spectral shift) [7]	greater amount of the lactone form than in the absence of RNA ([8]; 7.5 mg/ml RNA, PBS pH 7.4, 30 min, 22 °C) [%]	more of the lactone form present than without RNA ([8]; 7.5 mg/ml RNA, PBS pH 7.4, 30 min, 37 °C) [%]	more of the lactone form present than without RNA ([8]; 10 mg/ml RNA, PBS pH 7.4, after 3 hrs, 22 °C) [%]	more of the lactone form present than without RNA ([8]; 10 mg/ml RNA, PBS pH 7.4, after 3 hrs, 37 °C) [%]
CCc1c2c(nc3ccc(OC(=O)N4CCC(N5CCCCC5)CC4)cc13)-c1cc3c(c(=O)n1C2)COC(=O)[C@]3(O)CC [CPT-11]	significantly diminished effects on stabilizing	clearly consistent with drug binding to DNA	~30	no signs of any sequence preference	substantial hypochromic and red spectral shift	17 ± 1	8 ± 2	24	−50	30 ± 2	95%	−50	29 ± 2	95	–	–	–	–	–
CCc1c2c(nc3ccc(O)cc13)-c1cc3c(c(=O)n1C2)COC(=O)[C@]3(O)CC [SN-38, 7-ethyl-10-hydroxycamptothecin]	–	–	–	–	–	–	–	–	–	–	–	–	–	–	binds the DNA	–	–	–	–
CC[C@@]1(O)C(=O)OCc2c1cc1n(c2=O)Cc2cc3c(CN(C)C)c(O)ccc3nc2-1 [TPT, topotecan]	significantly diminished effects on stabilizing	clearly consistent with drug binding to DNA	~30	sequence preference of (dG-dC)15 over (dA-dT)15	substantial hypochromic and red spectral shift	15 ± 1	10 ± 1	12	−50	26 ± 2	95%	−50	19 ± 2	78	–	10	12	25	15
CC[C@@]1(O)C(=O)OCc2c1cc1n(c2=O)Cc2cc3ccccc3nc2-1 [camptothecin]	–	–	–	–	–	–	–	–	–	–	above 80%	–	–	–	–	–	–	–	–
